Laboratory results from patent publication US10064873B2, “Compounds and compositions for treating HIV with derivatives of Betulin” (GlaxoSmithKline LLC, priority 2011, dated 2018).

What follows are molecules tested on HIV NL4-3 wt (assay: MT4 antiviral assay, NL4-3 strain wild type). Conditions: Human immunodeficiency virus 1, NL43; MT4 cells; read-out: EC50 NL4-3 wt.
Type: cell-based, HIV-1
With CC(=O)O[C@H](CNCc1ccc(Cl)cc1)[C@@]12CC[C@]3(C)[C@H](CC[C@@H]4[C@@]5(C)CC[C@H](OC(=O)CC(C)(C)C(=O)O)C(C)(C)[C@@H]5CC[C@]43C)C1=C(C(C)C)C(=O)C2 [Example 17, 4-(((3aR,5aR,5bR,7aR,9S,11aR,11bR,13aS)-3a-((S)-1-Acetoxy-2-((4-chlorobenzyl)amino)ethyl)-1-isopropyl-5a,5b,8,8,11a-pentamethyl-2-oxo-3,3a,4,5,5a,5b,6,7,7a,8,9,10,11,11a,11b,12,13,13a-octadecahydro-2H-cyclopenta[a]chrysen-9-yl)oxy)-2,2-dimethyl-4-oxobutanoic acid] the EC50 was 8.7 nM. Work on CC(=O)O[C@H](CN(CCN(C)C)Cc1ccc(Cl)cc1)[C@@]12CC[C@]3(C)[C@H](CC[C@@H]4[C@@]5(C)CC[C@H](OC(=O)CC(C)(C)C(=O)O)C(C)(C)[C@@H]5CC[C@]43C)C1=C(C(C)C)C(=O)C2 [Example 20, 4-(((3aR,5aR,5bR,7aR,9S,11aR,11bR,13aS)-3a-((S)-1-Acetoxy-2-((4-chlorobenzyl)(2-(dimethylamino)ethyl)amino)ethyl)-1-isopropyl-5a,5b,8,8,11a-pentamethyl-2-oxo-3,3a,4,5,5a,5b,6,7,7a,8,9,10,11,11a,11b,12,13,13a-octadecahydro-2H-cyclopenta[a]chrysen-9-yl)oxy)-2,2-dimethyl-4-oxobutanoic acid] yielded an EC50 of 2.3 nM. Molecule CC(=O)O[C@@H](CN(CCN(C)C)Cc1ccc(Cl)cc1)[C@@]12CC[C@]3(C)[C@H](CC[C@@H]4[C@@]5(C)CC[C@H](OC(=O)CC(C)(C)C(=O)O)C(C)(C)[C@@H]5CC[C@]43C)C1=C(C(C)C)C(=O)C2 [Example 21, 4-(((3aR,5aR,5bR,7aR,9S,11aR,11bR,13aS)-3a-((R)-1-Acetoxy-2-((4-chlorobenzyl)(2-(dimethylamino)ethyl)amino)ethyl)-1-isopropyl-5a,5b,8,8,11a-pentamethyl-2-oxo-3,3a,4,5,5a,5b,6,7,7a,8,9,10,11,11a,11b,12,13,13a-octadecahydro-2H-cyclopenta[a]chrysen-9-yl)oxy)-2,2-dimethyl-4-oxobutanoic acid] has an EC50 of 76.5 nM. CC(C)C1=C2[C@H]3CC[C@@H]4[C@@]5(C)CC[C@H](OC(=O)CC(C)(C)CC(=O)O)C(C)(C)[C@@H]5CC[C@@]4(C)[C@]3(C)CC[C@@]2([C@@H](O)CN(CCN(C)C)Cc2ccc(Cl)cc2)CC1=O [Example 22, 5-(((3aR,5aR,5bR,7aR,9S,11aR,11bR,13aS)-3a-((R)-2-((4-Chlorobenzyl)(2-(dimethylamino)ethyl)amino)-1-hydroxyethyl)-1-isopropyl-5a,5b,8,8,11a-pentamethyl-2-oxo-3,3a,4,5,5a,5b,6,7,7a,8,9,10,11,11a,11b,12,13,13a-octadecahydro-2H-cyclopenta[a]chrysen-9-yl)oxy)-3,3-dimethyl-5-oxopentanoic acid] gave an EC50 of 3.3 nM. Molecule CC(C)C1=C2[C@H]3CC[C@@H]4[C@@]5(C)CC[C@H](OC(=O)CC(C)(C)CC(=O)O)C(C)(C)[C@@H]5CC[C@@]4(C)[C@]3(C)CC[C@@]2([C@H](O)CN(CCN(C)C)Cc2ccc(Cl)cc2)CC1=O [Example 23, 5-(((3aR,5aR,5bR,7aR,9S,11aR,11bR,13aS)-3a-((S)-2-((4-Chlorobenzyl)(2-(dimethylamino)ethyl)amino)-1-hydroxyethyl)-1-isopropyl-5a,5b,8,8,11a-pentamethyl-2-oxo-3,3a,4,5,5a,5b,6,7,7a,8,9,10,11,11a,11b,12,13,13a-octadecahydro-2H-cyclopenta[a]chrysen-9-yl)oxy)-3,3-dimethyl-5-oxopentanoic acid] has an EC50 of 4.9 nM. Molecule CC(C)C1=C2[C@H]3CC[C@@H]4[C@@]5(C)CC[C@H](OC(=O)CC(C)(C)C(=O)O)C(C)(C)[C@@H]5CC[C@@]4(C)[C@]3(C)CC[C@@]2([C@H](O)CNCc2ccccc2Cl)CC1=O [Example 24, 4-(((3aR,5aR,5bR,7aR,9S,11aR,11bR,13aS)-3a-((S)-2-((2-Chlorobenzyl)amino)-1-hydroxyethyl)-1-isopropyl-5a,5b,8,8,11a-pentamethyl-2-oxo-3,3a,4,5,5a,5b,6,7,7a,8,9,10,11,11a,11b,12,13,13a-octadecahydro-2H-cyclopenta[a]chrysen-9-yl)oxy)-2,2-dimethyl-4-oxobutanoic acid] has an EC50 of 40.4 nM. In the case of CC(C)C1=C2[C@H]3CC[C@@H]4[C@@]5(C)CC[C@H](OC(=O)CC(C)(C)C(=O)O)C(C)(C)[C@@H]5CC[C@@]4(C)[C@]3(C)CC[C@@]2([C@@H](O)CNCc2ccccc2Cl)CC1=O [Example 25, 4-(((3aR,5aR,5bR,7aR,9S,11aR,11bR,13aS)-3a-((R)-2-((2-chlorobenzyl)amino)-1-hydroxyethyl)-1-isopropyl-5a,5b,8,8,11a-pentamethyl-2-oxo-3,3a,4,5,5a,5b,6,7,7a,8,9,10,11,11a,11b,12,13,13a-octadecahydro-2H-cyclopenta[a]chrysen-9-yl)oxy)-2,2-dimethyl-4-oxobutanoic acid], the EC50 is reported as 14.7 nM. Molecule CC(=O)O[C@H](CNCc1ccc(F)cc1)[C@@]12CC[C@]3(C)[C@H](CC[C@@H]4[C@@]5(C)CC[C@H](OC(=O)CC(C)(C)C(=O)O)C(C)(C)[C@@H]5CC[C@]43C)C1=C(C(C)C)C(=O)C2 [Example 26, 4-(((3aR,5aR,5bR,7aR,9S,11aR,11bR,13aS)-3a-((S)-1-Acetoxy-2-((4-fluorobenzyl)amino)ethyl)-1-isopropyl-5a,5b,8,8,11a-pentamethyl-2-oxo-3,3a,4,5,5a,5b,6,7,7a,8,9,10,11,11a,11b,12,13,13a-octadecahydro-2H-cyclopenta[a]chrysen-9-yl)oxy)-2,2-dimethyl-4-oxobutanoic acid] has an EC50 of 4.9 nM. CC(=O)O[C@@H](CNCc1ccc(F)cc1)[C@@]12CC[C@]3(C)[C@H](CC[C@@H]4[C@@]5(C)CC[C@H](OC(=O)CC(C)(C)C(=O)O)C(C)(C)[C@@H]5CC[C@]43C)C1=C(C(C)C)C(=O)C2 [Example 27, 4-(((3aR,5aR,5bR,7aR,9S,11aR,11bR,13aS)-3a-((R)-1-acetoxy-2-((4-fluorobenzyl)amino)ethyl)-1-isopropyl-5a,5b,8,8,11a-pentamethyl-2-oxo-3,3a,4,5,5a,5b,6,7,7a,8,9,10,11,11a,11b,12,13,13a-octadecahydro-2H-cyclopenta[a]chrysen-9-yl)oxy)-2,2-dimethyl-4-oxobutanoic acid] showed an EC50 of 8.2 nM. Work on CC(C)C1=C2[C@H]3CC[C@@H]4[C@@]5(C)CC[C@H](OC(=O)CC(C)(C)C(=O)O)C(C)(C)[C@@H]5CC[C@@]4(C)[C@]3(C)CC[C@@]2([C@H](O)CN(C)Cc2ccc(Cl)cc2)CC1=O [Example 29, 4-(((3aR,5aR,5bR,7aR,9S,11aR,11bR,13aS)-3a-((S)-2-((4-Chlorobenzyl)(methyl)amino)-1-hydroxyethyl)-1-isopropyl-5a,5b,8,8,11a-pentamethyl-2-oxo-3,3a,4,5,5a,5b,6,7,7a,8,9,10,11,11a,11b,12,13,13a-octadecahydro-2H-cyclopenta[a]chrysen-9-yl)oxy)-2,2-dimethyl-4-oxobutanoic acid] yielded an EC50 of 17.5 nM. For CC(C)C1=C2[C@H]3CC[C@@H]4[C@@]5(C)CC[C@H](OC(=O)CC(C)(C)C(=O)O)C(C)(C)[C@@H]5CC[C@@]4(C)[C@]3(C)CC[C@@]2([C@@H](O)CN(C)Cc2ccc(Cl)cc2)CC1=O [Example 31, 4-(((3aR,5aR,5bR,7aR,9S,11aR,11bR,13aS)-3a-((R)-2-((4-Chlorobenzyl)(methyl)amino)-1-hydroxyethyl)-1-isopropyl-5a,5b,8,8,11a-pentamethyl-2-oxo-3,3a,4,5,5a,5b,6,7,7a,8,9,10,11,11a,11b,12,13,13a-octadecahydro-2H-cyclopenta[a]chrysen-9-yl)oxy)-2,2-dimethyl-4-oxobutanoic acid], the EC50 was 5.4 nM.
